Source: paper PMC10914731, “Homo-BacPROTAC-induced degradation of ClpC1 as a strategy against drug-resistant mycobacteria” (Nature Communications, 2024)
In brackets after ≈: the same amount, converted by molar mass. Several values for one entry are separate records, joined by “and”; a condition that tells them apart may be missing. Identical values can stand only once. Like-named read-outs stand apart in the source and are kept apart here. *1 amine or outer side, *2 acyl side, *3 side chain or, on linkers, in order; H or OH if unused. Where a SMILES comes first, the peptide text is derived from it. [ ]: non-standard residue; d: D form. X1 = C#CCn1cc(C[C@H](N[*:1])C(=O)[*:2])c2ccccc21; NMeLeu(5-OH,4R) = CN[C@@H](C[C@@H](C)CO)C(=O)O; Phe(βR-OMe) = CO[C@H](c1ccccc1)[C@H](N)C(=O)O; NMeL = CN[C@@H](CC(C)C)C(=O)O

Key:
[1] = Microsomal stability, human; type: in vitro ADME
Method in brief: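 Compound (1 µmol/l) was incubated at 37 °C with 0.5 mg/ml liver microsomes in 100 mM Tris-HCl pH 7.5, 6.5 mM MgCl2 and 1 mM NADPH. Reactions were quenched with acetonitrile at several time points and parent remaining quantified by HPLC-MS/MS; first-order half-lives were converted to clearance as %Qh via the well-stirred model.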

Msm 700084 = assay: microbe, parasite or virus in culture; type: cell-based
Mtb (moxR) FNDR-M1 = assay: microbe, parasite or virus in culture; type: cell-based
Enterococcus faecium = assay: MIC ESKAPES panel, Enterococcus faecium; type: cell-based
Method in brief: (§1)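 CLSI broth microdilution was run in Mueller Hinton broth with an inoculum of 3–7 × 10^5 cfu/ml at 37 °C. Turbidity was read on day 2; clear wells indicated growth inhibition.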

Klebsiella pneumoniae = assay: MIC ESKAPES panel, Klebsiella pneumoniae; type: cell-based
Method in brief: as §1

[2] = test system: non-replicating cells of Mtb H37Rv; type: cell-based, Mycobacterium tuberculosis; conditions: three replicate columns
[3] = biological target: His6-tagged ClpC1-NTD substrate, M. smegmatis ClpC1P1P2 (UniProt A0R574+P9WPC9); assay: biochemical; type: biochemical; conditions: for DC50: Msm; for % Response / ClpC1-NTD peak area: Figure 4a source data, well replicates
in vivo = type: in vivo, BALB/cAnNCrl mice
Description: The in-life experimental procedures were conducted in strict compliance with German and European animal welfare legislation in an AAALAC-accredited facility. Male BALB/cAnNCrl mice (Charles River Laboratories Research Models and Services, 97633 Sulzfeld, Germany) were used. Animals were 9 weeks old at dosing with a body weight of 21.6–24.3 g. Animals were delivered free of pathogens according to FELASA recommendations with a health certificate provided by the breeder. Upon receipt, the state of health and sex was checked. Animals acclimatized for at least 5 days before the commencement of the in-life phase. During acclimation, animals were group-housed in individually ventilated cages, on birch wood granulate bedding with species-specific enrichment (nesting material, mouse igloo, gnawing wood). During experimental conduct, animals were housed in conventional cages with elevated grid floors. Grid floor was used to avoid contamination with test item material excreted via urine and feces and subsequent reuptake during fur grooming. No bedding and enrichment were provided except a cage divider, which can be used as a shelter. Animals always had unlimited access to food and water and received a pelleted, total pathogen-free maintenance diet and tap drinking water, sterilized by filter.
In case of incomplete dissolution, the formulation was filtered at 40 °C (non-pyrogenic sterile-R filter, 0.2 µm). All formulations were stirred warm until administration. Actual test item content was determined bioanalytically.
Male BALB/cAnNCrl mice (n = 3 per test item and administration route) received a bolus dose of the formulated test item(s) (1 mg/kg iv, 30 mg/kg po) at t = 0 h, and whole blood samples were collected subsequently (35 µl at 0.1 (iv) / 0.25 (po), 0.5, 1, 2, 4, 6 h; 600 µl at sacrifice after 24 h). Animals were euthanized by exsanguination in deep isoflurane anesthesia. Whole blood samples were immediately stored on ice at about 4 °C. Plasma was separated by centrifugation at approximately 10,000 × g for 5 m at +4 °C. Centrifugation of each blood sample was started within 10 m after collection. A single aliquot of at least 15 µL of plasma was prepared and immediately stored at −20 ± 5 °C.
Sample proteins were precipitated with ACN (1 + 12, v/v) containing internal standard, and supernatants analyzed by quantitative UPLC-MS/MS: Phenomenex Luna Omega C18, 2.1 × 50 mm, 1.6 µm, 40 °C, gradient between 10% - 90% ACN with 0.1% formic acid. LogD determination: Lipophilicity of the test items, expressed as chromLogD7.5, was assessed by measuring their chromatographic retention times on C18-material. The chromatographic retention versus logD7.5 values of a series of thirteen n-alkan-2-ones (2-butanone – 2-hexadecanone) served as lipophilicity calibration.

[4] = iv bolus, individual animals 1-3
[5] = male, BALB/cAnNCrl, mouse, in vivo, iv, 1.062 umol/kg, iv bolus, individual animals 1-3
[6] = male, BALB/cAnNCrl, mouse, in vivo, iv, 1.062 umol/kg, iv bolus, mice, Mean

Sequence of His6-tagged ClpC1-NTD substrate, M. smegmatis ClpC1P1P2 (P9WPC9 1-156, looked up, natural form): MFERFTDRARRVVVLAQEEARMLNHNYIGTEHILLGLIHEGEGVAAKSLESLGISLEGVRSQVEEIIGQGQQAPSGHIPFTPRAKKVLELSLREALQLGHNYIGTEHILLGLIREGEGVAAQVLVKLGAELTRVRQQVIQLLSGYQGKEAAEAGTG
Sequence of His6-tagged ClpC1-NTD substrate, M. smegmatis ClpC1P1P2 (A0R574 whole entry): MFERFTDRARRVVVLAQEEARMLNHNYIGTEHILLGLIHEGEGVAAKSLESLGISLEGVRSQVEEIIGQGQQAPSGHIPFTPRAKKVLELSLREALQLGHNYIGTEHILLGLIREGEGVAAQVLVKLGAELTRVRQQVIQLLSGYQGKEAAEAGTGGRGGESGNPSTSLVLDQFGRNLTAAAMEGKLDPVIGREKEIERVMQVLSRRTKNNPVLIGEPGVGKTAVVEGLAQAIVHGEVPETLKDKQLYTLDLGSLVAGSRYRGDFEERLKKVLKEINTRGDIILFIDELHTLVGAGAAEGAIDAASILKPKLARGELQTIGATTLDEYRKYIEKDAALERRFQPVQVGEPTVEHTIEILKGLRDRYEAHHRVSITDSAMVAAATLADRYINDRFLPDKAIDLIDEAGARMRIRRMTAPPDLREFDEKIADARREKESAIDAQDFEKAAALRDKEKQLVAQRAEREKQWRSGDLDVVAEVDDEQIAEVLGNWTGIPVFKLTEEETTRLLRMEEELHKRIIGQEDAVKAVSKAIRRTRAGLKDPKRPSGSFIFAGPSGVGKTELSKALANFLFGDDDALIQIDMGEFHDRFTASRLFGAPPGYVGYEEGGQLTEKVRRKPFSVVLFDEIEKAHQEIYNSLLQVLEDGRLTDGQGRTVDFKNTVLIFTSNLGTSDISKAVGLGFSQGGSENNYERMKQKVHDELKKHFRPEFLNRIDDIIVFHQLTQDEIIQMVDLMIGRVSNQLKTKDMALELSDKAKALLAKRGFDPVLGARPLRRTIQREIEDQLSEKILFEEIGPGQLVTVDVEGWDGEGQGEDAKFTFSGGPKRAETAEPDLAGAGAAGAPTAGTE

For `C#CCn1cc(C[C@@H]2NC(=O)[C@H](C(C)C)NC(=O)[C@H](CC(C)C)N(C)C(=O)[C@H](C(C)C)NC(=O)[C@H]([C@H](OC)c3ccccc3)NC(=O)[C@H](C)NC(=O)[C@H](C[C@@H](C)CO)N(C)C2=O)c2ccccc21` [Compound 5] (cyclo(A[Phe(βR-OMe)]V[NMeL]V[X1][NMeLeu(5-OH,4R)])), the “Microsomal Stability Human QH” value ([1]; Human) was greater than 88.400%, the “Microsomal Stability Human” value ([1]; clearance in microsomes) was greater than 88 %Qh and the MIC (Msm 700084; Mycolicibacterium smegmatis, 700084, single determinations, read-out: Msm 700084 MIC) was 6.25 µM (≈ 5.88 µg/mL). The MIC (Msm 700084; Mycolicibacterium smegmatis, 700084, read-out: MIC Msm 700084) was 6.3 µM (≈ 5.93 µg/mL), the MIC (Mtb (moxR) FNDR-M1; M. tuberculosis FNDR-M1, single well replicates) was 0.391 µM and 0.781 µM and the MIC (Mtb (moxR) FNDR-M1; Mycobacterium tuberculosis, M. tuberculosis FNDR-M1, single well replicates) was 0.781 µM (≈ 0.735 µg/mL). The MIC (Mtb (moxR) FNDR-M1; Mycobacterium tuberculosis, Mtb (moxR) FNDR-M1, mean ± SD, n = 3 well replicates) was 0.7 ± 0.2 µM (≈ 0.659 µg/mL), the MIC (Enterococcus faecium; Enterococcus faecium, Gram positive, n = 3 well replicates) was greater than 50 µM and the MIC (Enterococcus faecium; Enterococcus faecium, Gram-Positive Bacteria, replicates 1-3) was greater than 47 µg/mL. For the same compound, the MIC (Enterococcus faecium; Gram-Positive Bacteria, replicates 1-3) was greater than 50 µM, the MIC (Klebsiella pneumoniae; Gram-Negative Bacteria, replicates 1-3) was greater than 50 µM and the MIC (Klebsiella pneumoniae; Klebsiella pneumoniae, Gram negative, n = 3 well replicates) was greater than 50 µM. For the same compound, the MIC (Klebsiella pneumoniae; Klebsiella pneumoniae, Gram-Negative Bacteria, replicates 1-3) was greater than 47 µg/mL, the “Supplementary Figure 2 dose-response value, starvation-induced non-replicating H37Rv cells” value ([2]; Conc. 0.0488281 µM) was 103.448 and 95.0508 and 97.0505 and the “Supplementary Figure 2 dose-response value, starvation-induced non-replicating H37Rv cells” value ([2]; Conc. 0.0976562 µM) was 90.7405 and 81.0762 and 83.793. For the same compound, the “Supplementary Figure 2 dose-response value, starvation-induced non-replicating H37Rv cells” value ([2]; Conc. 0.195312 µM) was 92.9713 and 85.6175 and 87.7368, the “Supplementary Figure 2 dose-response value, starvation-induced non-replicating H37Rv cells” value ([2]; Conc. 0.390625 µM) was 86.478 and 81.4188 and 83.0521 and the “Supplementary Figure 2 dose-response value, starvation-induced non-replicating H37Rv cells” value ([2]; Conc. 0.78125 µM) was 85.259 and 79.8652 and 81.4825. For the same compound, the “Supplementary Figure 2 dose-response value, starvation-induced non-replicating H37Rv cells” value ([2]; Conc. 1.5625 µM) was 86.0796 and 80.7177 and 79.658, the “Supplementary Figure 2 dose-response value, starvation-induced non-replicating H37Rv cells” value ([2]; Conc. 3.125 µM) was 84.8208 and 76.8536 and 80.407 and the “Supplementary Figure 2 dose-response value, starvation-induced non-replicating H37Rv cells” value ([2]; Conc. 6.25 µM) was 82.0881 and 78.7498 and 78.7099. For the same compound, the “Supplementary Figure 2 dose-response value, starvation-induced non-replicating H37Rv cells” value ([2]; Conc. 25 µM) was 68.1135 and 65.0382 and 65.6038, the “Supplementary Figure 2 dose-response value, starvation-induced non-replicating H37Rv cells” value ([2]; Conc. 50 µM) was 63.9387 and 63.1101 and 60.943 and the “Supplementary Figure 2 dose-response value, starvation-induced non-replicating H37Rv cells” value ([2]; Conc. 100 µM) was 61.9787 and 54.8959 and 58.7122. For the same compound, the DC50 ([3]; Measurement 1-6, read-out: DC50, single measurements) was greater than 100 µM, the DC50 ([3]; mean of the measurements, read-out: DC50, Mean) was greater than 100 µM and the “degradation of the His6-tagged ClpC1-NTD substrate” value ([3]; cell-free, result in words) was “did not cause any degradation”. For the same compound, the “% Response” value ([3]; conc. 0.4 µM) was 116.842% and 113.028% and 105.03% and 119.052% and 111.716% and 114.137% and 123.793% and 118.108% and 117.25%, the ClpC1-NTD peak area ([3]; conc. 0.4 µM) was 640826 and 655003 and 1857813 and 1613203 and 1512289 and 674239 and 595770 and 768891 and 644662 and the “% Response” value ([3]; conc. 33.3 µM) was 90.9541% and 97.3128% and 94.2061% and 106.414% and 99.6024% and 104.896% and 117.254% and 102.794% and 105.872%. The ClpC1-NTD peak area ([3]; conc. 33.3 µM) was 584244 and 637952 and 1853168 and 1510772 and 1477984 and 564418 and 575020 and 543552 and 642219, the “% Response” value ([3]; conc. 100.0 µM) was 105.654% and 87.8451% and 96.6012% and 102.875% and 103.779% and 107.689% and 115.982% and 114.344% and 115.781% and the ClpC1-NTD peak area ([3]; conc. 100.0 µM) was 756908 and 694227 and 2586172 and 1761383 and 2099655 and 509578 and 446745 and 481433 and 842128. For the same compound, the AUC0-inf/Dose (in vivo; [4]) was 180 h nM/(nmol kg-1) and 169 h nM/(nmol kg-1) and 158 h nM/(nmol kg-1), the AUC0-t/Dose (in vivo; [4]) was 177 h nM/(nmol kg-1) and 161 h nM/(nmol kg-1) and 154 h nM/(nmol kg-1) and the CL (in vivo; [4]) was 98.5 mL/min/kg and 106 mL/min/kg. The “CL PL QH” value (in vivo; [4]) was 103.0% and 109.0% and 117.0%, the Cmax/Dose (in vivo; [4]) was 488 nM/(nmol kg-1) and 361 nM/(nmol kg-1) and 396 nM/(nmol kg-1) and the MRT (in vivo; [4]) was 54 min and 42 min. The “Plasma concentration 0.1 h” value (in vivo; [4]) was 518 nM and 384 nM and 421 nM, the “Plasma concentration 0.5 h” value (in vivo; [4]) was 85.1 nM and 88.1 nM and 71.5 nM and the “Plasma concentration 1 h” value (in vivo; [4]) was 33.6 nM and 37.9 nM and 32.6 nM. For the same compound, the “Plasma concentration 2 h” value (in vivo; [4]) was 12.3 nM and 14.2 nM and 13.4 nM, the “Plasma concentration 4 h” value (in vivo; [4]) was 2.7 nM and 4.8 nM and 2.9 nM and the Vss (in vivo; [4]) was 5.6 L/kg and 4.6 L/kg. For the same compound, the t1/2 (in vivo; [4]) was 78 min, the AUC0-inf/Dose (in vivo; iv bolus, mice, Mean) was 169 h nM/(nmol kg-1) and the AUC0-t/Dose (in vivo; iv bolus, mice, Mean) was 164 h nM/(nmol kg-1). The “CL PL QH” value (in vivo; iv bolus, mice, Mean) was 110.0%, the Cmax/Dose (in vivo; iv bolus, mice, Mean) was 415 nM/(nmol kg-1) and the “Plasma concentration 0.1 h” value (in vivo; iv bolus, mice, Mean) was 441 nM. The “Plasma concentration 0.5 h” value (in vivo; iv bolus, mice, Mean) was 81.6 nM, the “Plasma concentration 1 h” value (in vivo; iv bolus, mice, Mean) was 34.7 nM and the “Plasma concentration 2 h” value (in vivo; iv bolus, mice, Mean) was 13.3 nM. The “Plasma concentration 4 h” value (in vivo; iv bolus, mice, Mean) was 3.5 nM, the clearance (in vivo; [5]) was 92.3 mL/min/kg and the half-life (in vivo; [5]) was 54 min. For the same compound, the MRT (in vivo; male, BALB/cAnNCrl, mouse, in vivo, iv, 1.062 umol/kg, iv bolus, individual animals 1-3, read-out: MRT) was 36 min, the Vd (in vivo; male, BALB/cAnNCrl, mouse, in vivo, iv, 1.062 umol/kg, iv bolus, individual animals 1-3, read-out: Vss) was 3.5 L/kg and the clearance (in vivo; [6]) was 98.8 mL/min/kg. For the same compound, the half-life (in vivo; [6]) was 60 min, the MRT (in vivo; male, BALB/cAnNCrl, mouse, in vivo, iv, 1.062 umol/kg, iv bolus, mice, Mean, read-out: MRT) was 48 min and the Vd (in vivo; male, BALB/cAnNCrl, mouse, in vivo, iv, 1.062 umol/kg, iv bolus, mice, Mean, read-out: Vss) was 4.5 L/kg. It also gave a Vd (in vivo; male, BALB/cAnNCrl, mouse, in vivo, iv, 1 mg/kg, mice, 1 mg kg-1 iv bolus, read-out: VSS) of 4.54 L/kg, a clearance (in vivo; male, BALB/cAnNCrl, mouse, in vivo, iv, 1 mg/kg, plasma clearance, mice, 1 mg kg-1 iv bolus) of 98.8 mL/min/kg and a half-life (in vivo; male, BALB/cAnNCrl, mouse, in vivo, iv, 1 mg/kg, plasma, mice, 1 mg kg-1 iv bolus) of 61.8 min. For the same compound, the AUC (in vivo; mouse, in vivo, iv) was 164 h nM/(nmol kg-1), the Cmax (in vivo; mouse, in vivo, iv) was 415 nM/(nmol kg-1) and the “Plasma concentration 6 h” value (in vivo; mouse, in vivo, iv) was “BLOQ”. The “Plasma concentration 24 h” value (in vivo; mouse, in vivo, iv) was “BLOQ”.
